From ChEMBL document CHEMBL4673231, “Novel isoniazid embedded triazole derivatives: Synthesis, antitubercular and antimicrobial activity evaluation” (Bioorg Med Chem Lett, 2020)
Activity calls are given as the source filed them. The rule behind the calls is not given here.

Assays:
[1] = system: Staphylococcus aureus; test: Antibacterial activity against Staphylococcus aureus assessed as diameter of inhibition zone at 1 mg/ml incubated for 24 hrs by agar well diffusion assay; format: functional
[2] = system: Bacillus subtilis; test: Antibacterial activity against Bacillus subtilis assessed as diameter of inhibition zone at 1 mg/ml incubated for 24 hrs by agar well diffusion assay; format: functional
[3] = system: Pseudomonas aeruginosa; test: Antibacterial activity against Pseudomonas aeruginosa assessed as diameter of inhibition zone at 1 mg/ml incubated for 24 hrs by agar well diffusion assay; format: functional; details: for zone of inhibition at 1000 µg/mL: read-out: DIZ
[4] = system: Klebsiella aerogenes; test: Antibacterial activity against Enterobacter aerogenes assessed as diameter of inhibition zone at 1 mg/ml incubated for 24 hrs by agar well diffusion assay; format: functional; details: for zone of inhibition at 1000 µg/mL: read-out: DIZ
[5] = system: Saccharomyces cerevisiae; test: Antifungal activity against Saccharomyces cerevisiae assessed as diameter of inhibition zone at 1 mg/ml incubated for 24 hrs by agar well diffusion assay; format: functional; details: for zone of inhibition at 1000 µg/mL: read-out: DIZ
[6] = Cytotoxicity against mouse RAW264.7 cells assessed as reduction in cell viability at 25 ug/ml incubated for 48 hrs by MTT assay; format: cell-based; details: at 25 µg/mL, read-out: INH
[7] = system: Salmonella enterica subsp. enterica serovar Abony; test: Antibacterial activity against Salmonella enterica subsp. enterica serovar Abony assessed as diameter of inhibition zone at 1 mg/ml incubated for 24 hrs by agar well diffusion assay; format: functional
[8] = system: Shigella boydii; test: Antibacterial activity against Shigella boydii assessed as diameter of inhibition zone at 1 mg/ml incubated for 24 hrs by agar well diffusion assay; format: functional
[9] = system: Bacillus cereus; test: Antibacterial activity against Bacillus cereus assessed as diameter of inhibition zone at 1 mg/ml incubated for 24 hrs by agar well diffusion assay; format: functional
[10] = system: Aspergillus niger; test: Antifungal activity against Aspergillus niger assessed as diameter of inhibition zone at 1 mg/ml incubated for 24 hrs by agar well diffusion assay; format: functional; details: for zone of inhibition at 1000 µg/mL: read-out: DIZ
[11] = system: Escherichia coli; test: Antibacterial activity against Escherichia coli assessed as diameter of inhibition zone at 1 mg/ml incubated for 24 hrs by agar well diffusion assay; format: functional; details: for zone of inhibition at 1000 µg/mL: read-out: DIZ
[12] = system: Mycobacterium tuberculosis; test: Antimycobacterial activity against Mycobacterium tuberculosis H37Rv assessed as reduction in microbial growth incubated for 7 days by alamar blue assay; format: functional; details: 168 h, time 7 day
[13] = system: Salmonella typhi; test: Antibacterial activity against Salmonella typhi assessed as diameter of inhibition zone at 1 mg/ml incubated for 24 hrs by agar well diffusion assay; format: functional, Salmonella enterica subsp. enterica serovar Typhi; details: for zone of inhibition at 1000 µg/mL: Salmonella enterica, read-out: DIZ; for diameter of the inhibition zone (DIZ): Salmonella enterica subsp. enterica serovar Typhi

**Q.** For `COc1cccc(-n2cc(COc3ccc([N+](=O)[O-])cc3/C=N/NC(=O)c3ccncc3)nn2)c1`, which “diameter of the inhibition zone (DIZ)” value [1] is on record?
**A.** The value was “inactive”.

**Q.** What about the zone of inhibition at 1000 µg/mL ([2]; read-out: DIZ) of the same molecule?
**A.** The zone of inhibition at 1000 µg/mL was 12 mm.

**Q.** What about the zone of inhibition at 1000 µg/mL [3] of the same molecule?
**A.** Its zone of inhibition at 1000 µg/mL is 10 mm.

**Q.** And the zone of inhibition at 1000 µg/mL [4]?
**A.** The zone of inhibition at 1000 µg/mL was 6 mm.

**Q.** What about the “diameter of the inhibition zone (DIZ)” value [5] of the same molecule?
**A.** The value was “inactive”.

**Q.** And the cytotoxicity at 48 h, 25 ug/ml [6]?
**A.** Its cytotoxicity at 48 h, 25 ug/ml is 23.9%.

**Q.** And the zone of inhibition at 1000 µg/mL ([7]; read-out: DIZ)?
**A.** The zone of inhibition at 1000 µg/mL was 8 mm.

**Q.** And the “diameter of the inhibition zone (DIZ)” value [8]?
**A.** The value was “inactive”.

**Q.** And the “diameter of the inhibition zone (DIZ)” value [9]?
**A.** The value was “inactive”.

**Q.** And the zone of inhibition at 1000 µg/mL [10]?
**A.** The zone of inhibition at 1000 µg/mL was 13 mm.

**Q.** What about the zone of inhibition at 1000 µg/mL [11] of the same molecule?
**A.** Its zone of inhibition at 1000 µg/mL is 9 mm.

**Q.** What about the MIC [12] of the same molecule?
**A.** The MIC was 0.78 µg/mL.

**Q.** And the zone of inhibition at 1000 µg/mL [13]?
**A.** The zone of inhibition at 1000 µg/mL was 12 mm.

**Q.** Which results are given for `O=C(N/N=C/c1cc([N+](=O)[O-])ccc1OCc1cn(-c2ccccc2)nn1)c1ccncc1`?
**A.** diameter of the inhibition zone (DIZ) [1]: inactive; diameter of the inhibition zone (DIZ) [2]: inactive; zone of inhibition at 1000 µg/mL [3]: 13 mm; zone of inhibition at 1000 µg/mL [4]: 14 mm; zone of inhibition at 1000 µg/mL [5]: 10 mm; cytotoxicity at 48 h, 25 ug/ml [6]: 25.7%; diameter of the inhibition zone (DIZ) [7]: inactive; diameter of the inhibition zone (DIZ) [8]: inactive; diameter of the inhibition zone (DIZ) [9]: inactive; diameter of the inhibition zone (DIZ) [10]: inactive; zone of inhibition at 1000 µg/mL [11]: 12 mm; MIC [12]: 0.78 µg/mL; diameter of the inhibition zone (DIZ) [13]: inactive

**Q.** For `NNC(=O)c1ccncc1` [ISONIAZID], which MIC [12] is on record?
**A.** The MIC was 0.1 µg/mL.

**Q.** With `Cc1ccc(-n2cc(COc3ccc([N+](=O)[O-])cc3/C=N/NC(=O)c3ccncc3)nn2)c(C)c1` as the molecule, how does the “diameter of the inhibition zone (DIZ)” value [1] read?
**A.** The value was “inactive”.

**Q.** And the “diameter of the inhibition zone (DIZ)” value [2]?
**A.** Its value is “inactive”.

**Q.** What about the “diameter of the inhibition zone (DIZ)” value [3] of the same molecule?
**A.** Its value is “inactive”.

**Q.** What about the “diameter of the inhibition zone (DIZ)” value [4] of the same molecule?
**A.** The value was “inactive”.

**Q.** And the “diameter of the inhibition zone (DIZ)” value [5]?
**A.** Its value is “inactive”.

**Q.** What about the cytotoxicity at 48 h, 25 ug/ml [6] of the same molecule?
**A.** The cytotoxicity at 48 h, 25 ug/ml was 17.6%.

**Q.** What about the “diameter of the inhibition zone (DIZ)” value [7] of the same molecule?
**A.** Its value is “inactive”.

**Q.** And the “diameter of the inhibition zone (DIZ)” value [8]?
**A.** The value was “inactive”.

**Q.** What about the “diameter of the inhibition zone (DIZ)” value [9] of the same molecule?
**A.** Its value is “inactive”.

**Q.** What about the “diameter of the inhibition zone (DIZ)” value [10] of the same molecule?
**A.** The value was “inactive”.

**Q.** And the “diameter of the inhibition zone (DIZ)” value [11]?
**A.** The value was “inactive”.

**Q.** What about the MIC [12] of the same molecule?
**A.** Its MIC is 3.12 µg/mL.

**Q.** What about the zone of inhibition at 1000 µg/mL [13] of the same molecule?
**A.** The zone of inhibition at 1000 µg/mL was 11 mm.

**Q.** With `CO[C@H]1/C=C/O[C@@]2(C)Oc3c(C)c(O)c4c(O)c(c(/C=N/N5CCN(C)CC5)c(O)c4c3C2=O)NC(=O)/C(C)=C\C=C\[C@H](C)[C@H](O)[C@@H](C)[C@@H](O)[C@@H](C)[C@H](OC(C)=O)[C@@H]1C` [RIFAMPIN] as the molecule, how does the MIC [12] read?
**A.** The MIC was 0.2 µg/mL.

**Q.** What does the source list for `OC(Cn1cncn1)(Cn1cncn1)c1ccc(F)cc1F` [FLUCONAZOLE]?
**A.** zone of inhibition at 1000 µg/mL [5]: 30 mm; zone of inhibition at 1000 µg/mL [10]: 30 mm

**Q.** With `Cc1ccc([N+](=O)[O-])cc1-n1cc(COc2ccc([N+](=O)[O-])cc2/C=N/NC(=O)c2ccncc2)nn1` as the molecule, how does the “diameter of the inhibition zone (DIZ)” value [1] read?
**A.** The value was “inactive”.

**Q.** And the “diameter of the inhibition zone (DIZ)” value [2]?
**A.** Its value is “inactive”.

**Q.** What about the zone of inhibition at 1000 µg/mL [3] of the same molecule?
**A.** Its zone of inhibition at 1000 µg/mL is 9 mm.

**Q.** And the “diameter of the inhibition zone (DIZ)” value [4]?
**A.** Its value is “inactive”.

**Q.** And the “diameter of the inhibition zone (DIZ)” value [5]?
**A.** Its value is “inactive”.

**Q.** What about the cytotoxicity at 48 h, 25 ug/ml [6] of the same molecule?
**A.** Its cytotoxicity at 48 h, 25 ug/ml is 23.9%.

**Q.** What about the “diameter of the inhibition zone (DIZ)” value [7] of the same molecule?
**A.** The value was “inactive”.

**Q.** And the “diameter of the inhibition zone (DIZ)” value [8]?
**A.** Its value is “inactive”.

**Q.** And the “diameter of the inhibition zone (DIZ)” value [9]?
**A.** The value was “inactive”.

**Q.** And the zone of inhibition at 1000 µg/mL [10]?
**A.** Its zone of inhibition at 1000 µg/mL is 13 mm.

**Q.** What about the zone of inhibition at 1000 µg/mL [11] of the same molecule?
**A.** The zone of inhibition at 1000 µg/mL was 12 mm.

**Q.** And the MIC [12]?
**A.** Its MIC is 0.78 µg/mL.

**Q.** And the “diameter of the inhibition zone (DIZ)” value [13]?
**A.** Its value is “inactive”.

**Q.** For `O=C(O)c1cn(C2CC2)c2cc(N3CCNCC3)c(F)cc2c1=O` [CIPROFLOXACIN], which MIC [12] is on record?
**A.** The MIC was 1.56 µg/mL.

**Q.** Which MIC [12] does the source give for `CC[C@@H](CO)NCCN[C@@H](CC)CO` [ETHAMBUTOL] here?
**A.** The MIC was 3.12 µg/mL.

**Q.** For `O=C(N/N=C/c1cc([N+](=O)[O-])ccc1OCc1cn(-c2ccc(Cl)cc2)nn1)c1ccncc1`, which “diameter of the inhibition zone (DIZ)” value [1] is on record?
**A.** Its value is “inactive”.

**Q.** And the “diameter of the inhibition zone (DIZ)” value [2]?
**A.** Its value is “inactive”.

**Q.** And the zone of inhibition at 1000 µg/mL [3]?
**A.** Its zone of inhibition at 1000 µg/mL is 15 mm.

**Q.** And the “diameter of the inhibition zone (DIZ)” value [4]?
**A.** Its value is “inactive”.

**Q.** And the zone of inhibition at 1000 µg/mL [5]?
**A.** The zone of inhibition at 1000 µg/mL was 10 mm.

**Q.** And the “diameter of the inhibition zone (DIZ)” value [7]?
**A.** Its value is “inactive”.

**Q.** What about the “diameter of the inhibition zone (DIZ)” value [8] of the same molecule?
**A.** Its value is “inactive”.

**Q.** And the “diameter of the inhibition zone (DIZ)” value [9]?
**A.** The value was “inactive”.

**Q.** What about the zone of inhibition at 1000 µg/mL [10] of the same molecule?
**A.** Its zone of inhibition at 1000 µg/mL is 16 mm.

**Q.** And the “diameter of the inhibition zone (DIZ)” value [11]?
**A.** The value was “inactive”.

**Q.** What about the MIC [12] of the same molecule?
**A.** Its MIC is 25 µg/mL.

**Q.** And the zone of inhibition at 1000 µg/mL [13]?
**A.** The zone of inhibition at 1000 µg/mL was 13 mm.
